Drawing on patent US9783530B2, “Factor Xla inhibitors” (Merck Sharp & Dohme Corp., priority 2014, dated 2017), this text covers IC50 for 10 compounds.

Test [1] addresses purified human Factor XIa (Homo sapiens (Human), UniProt P03951). Put plainly: Factor XIa Assay. The format is biochemical. As to conditions: purified human Factor XIa 40 pM, substrate Z-Gly-Pro-Arg-AFC, pH 7.4; read-out: FXIa IC50. The procedure: The effectiveness of a compound of the present invention as an inhibitor of Coagulation Factor XIa can be determined using a relevant purified serine protease, and an appropriate synthetic substrate. The rate of hydrolysis of the chromogenic or fluorogenic substrate by the relevant serine protease was measured both in the absence and presence of compounds of the present invention. Assays were conducted at room temperature or at 37° C. […] A decrease in the rate of fluorescence change in the presence of inhibitor is indicative of enzyme inhibition. Such methods are known to one skilled in the art. […]
Factor XIa determinations were made in 50 mM HEPES buffer at pH 7.4 containing 150 mM NaCl, 5 mM CaCl2, and 0.1% PEG 8000 (polyethylene glycol; JT Baker or Fisher Scientific). Determinations were made using purified human Factor XIa at a final concentration of 40 pM (Sekisui Diagnostics) and he synthetic substrate, Z-Gly-Pro-Arg-AFC, TFA salt (Sigma #C0980) at a concentration of 100 µM.
Activity assays were performed by diluting a stock solution of substrate at least tenfold to a final concentration ≦0.1 Km into a solution containing enzyme or enzyme equilibrated with inhibitor. Times required to achieve equilibration between enzyme and inhibitor were determined in control experiments. Initial velocities of product formation in the absence (Vo) or presence of inhibitor (Vi) were measured. Assuming competitive inhibition, and that unity is negligible compared Km/[S], [I]/e, and [I]/e (where [S], [I], and e respectively represent the total concentrations, of substrate, inhibitor and enzyme), the equilibrium constant (Ki) for dissociation of the inhibitor from the enzyme can be obtained from the dependence of Vo/Vi on [I] shown in the following equation.

Test [2] deals with purified Human plasma kallikrein (Homo sapiens (Human), UniProt P03952). The test can be described thus: Kallikrein Assay. Particulars: purified Human plasma kallikrein 0.5 nM, substrate Acetyl-K-P-R-AFC, pH 7.4; read-out: P. KLK IC50. It is filed as biochemical. Here is the method:
The effectiveness of a compound of the present invention as an inhibitor of Kallikrein can be determined using a relevant purified serine protease, and an appropriate synthetic substrate. The rate of hydrolysis of the chromogenic or fluorogenic substrate by the relevant serine protease was measured both in the absence and presence of compounds of the present invention. Assays were conducted at room temperature or at 37° C. […] A decrease in the rate of fluorescence change in the presence of inhibitor is indicative of enzyme inhibition. Such methods are known to one skilled in the art. The results of this assay are expressed as the inhibitory constant, Ki.
Kallikrein determinations were made in 50 mM HEPES buffer at pH 7.4 containing 150 mM NaCl, 5 mM CaCl2, and 0.1% PEG 8000 (polyethylene glycol; Fisher Scientific). Determinations were made using purified Human plasma kallikrein at a final concentration of 0.5 nM (Enzyme Research Laboratories) and the synthetic substrate, Acetyl-K-P-R-AFC (Sigma # C6608) at a concentration of […].
Activity assays were performed by diluting a stock solution of substrate at least tenfold to a final concentration ≦0.2 Km into a solution containing enzyme or enzyme equilibrated with inhibitor. Times required to achieve equilibration between enzyme and inhibitor were determined in control experiments. The reactions were performed under linear progress curve conditions and fluorescence increase measured at 405 Ex/510 Em nm. Values were converted to percent inhibition of the control reaction (after subtracting 100% Inhibition value). IC50 was determined by inflection point from a four parameter logistic curve fit. Ki was calculated using the Cheng Prusoff equation, Ki=IC50/(1+([S]/Km)).

Structures are written as SMILES.

Chain of purified human Factor XIa (P03951 388-625): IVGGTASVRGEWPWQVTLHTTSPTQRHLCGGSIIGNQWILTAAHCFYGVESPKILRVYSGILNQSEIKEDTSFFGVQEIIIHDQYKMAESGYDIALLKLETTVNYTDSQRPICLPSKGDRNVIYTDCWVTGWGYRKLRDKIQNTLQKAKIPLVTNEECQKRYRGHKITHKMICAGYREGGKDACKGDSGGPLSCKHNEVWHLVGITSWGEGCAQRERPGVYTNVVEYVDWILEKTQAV
Chain of purified human Factor XIa (P03951 19-387 partner): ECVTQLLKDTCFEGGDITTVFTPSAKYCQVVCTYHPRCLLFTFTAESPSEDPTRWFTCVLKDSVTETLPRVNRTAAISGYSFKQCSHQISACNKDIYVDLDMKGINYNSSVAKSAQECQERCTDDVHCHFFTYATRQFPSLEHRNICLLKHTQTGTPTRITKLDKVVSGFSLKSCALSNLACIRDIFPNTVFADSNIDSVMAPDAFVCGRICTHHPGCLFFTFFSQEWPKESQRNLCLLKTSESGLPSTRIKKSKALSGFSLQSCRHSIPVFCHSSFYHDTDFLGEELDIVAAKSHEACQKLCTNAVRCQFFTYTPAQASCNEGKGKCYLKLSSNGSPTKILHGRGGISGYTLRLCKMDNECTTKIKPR
Chain of purified Human plasma kallikrein (P03952 391-638): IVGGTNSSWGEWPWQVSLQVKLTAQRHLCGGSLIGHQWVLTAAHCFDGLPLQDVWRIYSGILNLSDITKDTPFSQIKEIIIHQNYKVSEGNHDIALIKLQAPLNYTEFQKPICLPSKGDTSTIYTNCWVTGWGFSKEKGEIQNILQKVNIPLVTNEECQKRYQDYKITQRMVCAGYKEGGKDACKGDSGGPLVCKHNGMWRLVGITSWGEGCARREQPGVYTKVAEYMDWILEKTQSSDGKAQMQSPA
Chain of purified Human plasma kallikrein (P03952 20-390 partner): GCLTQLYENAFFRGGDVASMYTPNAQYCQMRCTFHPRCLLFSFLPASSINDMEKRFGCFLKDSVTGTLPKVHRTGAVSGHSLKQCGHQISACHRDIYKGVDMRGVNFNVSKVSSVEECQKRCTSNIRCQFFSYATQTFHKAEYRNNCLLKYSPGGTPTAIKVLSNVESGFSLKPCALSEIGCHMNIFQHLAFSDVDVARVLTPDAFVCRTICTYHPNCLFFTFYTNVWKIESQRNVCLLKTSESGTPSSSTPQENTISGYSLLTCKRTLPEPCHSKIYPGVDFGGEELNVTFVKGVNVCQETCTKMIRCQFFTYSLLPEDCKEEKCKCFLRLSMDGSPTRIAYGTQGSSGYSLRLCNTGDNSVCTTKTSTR

On to `O=C(Nc1ccc2cn[nH]c2c1)C(Cc1ccccc1)c1ccc(-c2c(F)ccc(Cl)c2F)c[n+]1[O-]` (racemic) [Example 5, 2-[5-(3-chloro-2,6-difluorophenyl)-1-oxidopyridin-2-yl]-N-1H-indazol-6-yl-3-phenylpropanamide], for which the IC50 – broadly, the midpoint of a concentration-inhibition curve – in test [1] is 109 nM; in test [2], 91.4 nM.

For `O=C(Nc1ccc2cn[nH]c2c1)C(Cc1ccccc1)c1ccc(-c2cc(Cl)ccc2-n2cnnn2)c[n+]1[O-]` (racemic) [Example 6, 2-{5-[5-chloro-2-(1H-tetrazol-1-yl)phenyl]-1-oxidopyridin-2-yl}-N-1H-indazol-6-yl-3-phenylpropanamide], the IC50 turned out to be 0.24 nM in test [1] and 1.9 nM in test [2].

As to `NCc1ccc(Cl)cc1-c1ccc(C(CC2CC2)C(=O)Nc2ccc(C(=O)O)cc2)[n+]([O-])c1` (racemic) [Example 40, 4-[(2-{5-[2-(aminomethyl)-5-chlorophenyl]-1-oxidopyridin-2-yl}-3-cyclopropylpropanoyl)amino]benzoic acid], the figures for the IC50 in test [1] and in test [2] were 30.6 nM and 1880 nM, respectively.

Consider `O=C(O)c1ccc(NC(=O)C(CC2CC2)c2ccc(-c3cc(Cl)ccc3-n3cc(CO)nn3)c[n+]2[O-])cc1` (racemic) [Example 42, 4-{[2-(5-{5-chloro-2-[4-(hydroxymethyl)-1H-1,2,3-triazol-1-yl]phenyl}-1-oxidopyridin-2-yl)-3-cyclopropylpropanoyl]amino}benzoic acid], for which the values for the IC50 in test [1] and in test [2] were 8.45 nM and 1610 nM, respectively.

Regarding `O=C(O)c1ccc(NC(=O)C(CC2CC2)c2ccc(-c3c(-n4cnnn4)ccc(Cl)c3F)c[n+]2[O-])cc1` (racemic) [Example 50, 4-[(2-{5-[3-chloro-2-fluoro-6-(1H-tetrazol-1-yl)phenyl]-1-oxidopyridin-2-yl}-3-cyclopropylpropanoyl)amino]benzoic acid], the values for the IC50 in test [1] and in test [2] were 0.19 nM and 25.1 nM, respectively.

As for `O=C(NC12CCC(C(=O)O)(CC1)CC2)C(Cc1ccccc1)c1ccc(-c2c(F)ccc(Cl)c2F)c[n+]1[O-]` (single isomer, unassigned) [Example 15, 4-({2-[5-(3-chloro-2,6-difluorophenyl)-1-oxidopyridin-2-yl]-3-phenylpropanoyl}amino) bicyclo[2.2.2]octane-1-carboxylic acid], the results for the IC50 in test [1] and in test [2] were 111 nM and 45 nM, respectively.

On to `O=C(NC12CCC(C(=O)O)(CC1)CC2)C(Cc1ccccc1)c1ccc(-c2cc(Cl)ccc2-n2cnnn2)c[n+]1[O-]` (single isomer, unassigned) [Example 17, 4-[(2-{5-[5-chloro-2-(1H-tetrazol-1-yl)phenyl]-1-oxidopyridin-2-yl}-3-phenylpropanoyl)amino] bicyclo[2.2.2]octane-1-carboxylic acid], for which the IC50 was found to be 0.76 nM in test [1] and 144 nM in test [2].

Regarding `COC(=O)NC12CCC(NC(=O)C(Cc3ccccc3)c3ccc(-c4cc(Cl)ccc4-n4cnnn4)c[n+]3[O-])(CC1)CC2` (single isomer, unassigned) [Example 19, methyl {4-[(2-{5-[5-chloro-2-(1H-tetrazol-1-yl)phenyl]-1-oxidopyridin-2-yl}-3-phenylpropanoyl)amino]bicyclo[2.2.2]oct-1-yl}carbamate], the IC50 in test [1] came out at 4.1 nM; in test [2], 9.2 nM.

In the case of `COc1cc(C(Cc2ccccc2)C(=O)Nc2ccc(C(=O)O)cc2)[n+]([O-])cc1-c1cc(Cl)ccc1C#N` (single isomer, unassigned) [Example 23, 2-(1-((4-carboxyphenyl)amino)-1-oxo-3-phenylpropan-2-yl)-5-(5-chloro-2-cyanophenyl)-4-methoxypyridine 1-oxide], the results for the IC50 in test [1] and in test [2] were 9.39 nM and 24.6 nM, respectively.

Regarding `O=C(O)c1ccc(NC(=O)C(CC2CC2)c2ccc(-c3cc(Cl)ccc3-n3cc(C(F)F)nn3)c[n+]2[O-])cc1` (single isomer, unassigned) [Example 52, 4-{[2-(5-{5-chloro-2-[4-(difluoromethyl)-1H-1,2,3-triazol-1-yl]phenyl}-1-oxidopyridin-2-yl)-3-cyclopropylpropanoyl]amino}benzoic acid], the IC50 in test [2] was found to be 85.6 nM.
